Experimental data published in patent US12410152B2, “Oxazole and thioazole-type cullin ring ubiquitin ligase compounds and uses thereof” (Proxygen GmbH, priority 2019, dated 2025).

Tested on: KBM7 WT cells (global proteome)
Assay: Quantitative expression proteomics (TMT isobaric tagging), drug vs DMSO
Format: cell-based, human
Text: The mechanism by which the assayed molecules re-program a functional CRL4B complex based on the data shown could be that drug binding to CUL4B recruits a neo-substrate directly to the cullin backbone. Alternatively, drug binding could stabilize CUL4B function to boost time intervals where a functionally competent CUL4B complexes can be formed. Here, the word “functional” implies that the CUL4B backbone of this complex needs to be neddylated, and a CUL4B associated E2 ubiquitin-conjugating enzyme (UBE2G1) needs to be bound. FIG. 9 outlines one possible mechanism. Both predicted mechanisms of action would result in a functionally altered CRL4B complex, and thus an altered stability of drug-induced (neo-) substrates. In order to identify target proteins with a decreased abundance or, in other words, target proteins that become degraded by CRL4B after drug treatment, global proteome composition was measured using quantitative expression proteomics (TMT-labeling). In brief, KBM7 cells were drug treated for 12 hours, lysed, and subjected to isobaric tagging. Ensuing proteomics analysis quantified a total of 7,903 proteins at a minimum spectral count of 2. […] Data on essentiality are taken from Hart et al., G3, August 2017 (PMID: 28655737).
50×10^6 KBM7^WT cells per condition were collected, washed four times with ice-cold PBS, the supernatant aspirated and pellets snap-frozen in liquid N2. Each washed cell pellet was lysed separately in 40 μL of freshly prepared lysis buffer as previously described (see Mayor-Ruiz et al., Mol Cell 2019)
Offline Fractionation via RP-HPLC at high pH and 2D-RP/RP Liquid Chromatography Mass Spectrometry were performed as previously described (see Mayor-Ruiz et al., Mol Cell 2019).
Acquired raw data files were processed using the Proteome Discoverer 2.2.0 platform, utilizing the Sequest HT database search engine and Percolator validation software node (V3.04) to remove false positives with a false discovery rate (FDR) of 1% on peptide and protein level under strict conditions. Searches were performed with full tryptic digestion against the human SwissProt database v2017.06 with up to two allowed miscleavage sites. Oxidation (+15.9949 Da) of methionine was set as variable modification, whilst carbamidomethylation (+57.0214 Da) of cysteine residues and TMT 6-plex labelling of peptide N-termini and lysine residues were set as fixed modifications. Data was searched with mass tolerances of ±10 ppm and ±0.02 Da on the precursor and fragment ions, respectively. Results were filtered to include peptide spectrum matches (PSMs) with Sequest HT cross-correlation factor (Xcorr) scores of […] and high peptide confidence assigned by Percolator. MS^2 signal-to-noise values (S/N) values of TMT reporter ions were used to estimate peptide/protein abundance changes. PSMs with precursor isolation interference values of ≥ 50% and average TMT-reporter ion S/N≤10 were excluded from quantitation. Only unique peptides were used for TMT quantitation as well as for TOP3 label-free quantitation. Isotopic impurity correction and TMT channel-normalization based on total peptide amount were applied. For statistical analysis and p-value calculation, the integrated ANOVA hypothesis test was used. TMT ratios with p-values below 0.01 were considered as significant. Only proteins with >1 peptide detected and >1 unique peptide detected were considered for further analysis. For the calling of destabilized proteins, a log 2 fold change threshold (drug/DMSO) of −0.3 was applied.
Comparison of overall proteome-wide changes in KBM7 cells treated with IC020772.1 (2.5 μM), IC021313.2 (7 μM) or T6938051 (3.5 μM) for 5 h and 12h, using quantitative proteomics based on isobaric tagging.
The protein names in Table 4, Table 5 and Table 6 refer to the protein names as provided by HUGO Gene Nomenclature Committee (HGNC) database. […]

## O=C(CSc1nnc2c(n1)[nH]c1ccccc12)Nc1ccc(Cl)cn1 [IC020772.1]
ACD (Q96AP0-1)
  log2FC (IC020772.1/DMSO): −0.567
AEN (Q8WTP8-2)
  log2FC (IC020772.1/DMSO): −0.5522
ANTXR2 (P58335-4)
  log2FC (IC020772.1/DMSO): −0.5522
APEX2 (Q9UBZ4)
  log2FC (IC020772.1/DMSO): −1.224
APOB (P04114)
  log2FC (IC020772.1/DMSO): −0.5002
APOL2 (Q9BQE5)
  log2FC (IC020772.1/DMSO): −0.5585
ARSK (Q6UWY0)
  log2FC (IC020772.1/DMSO): −0.486
ASPM (Q8IZT6-1)
  log2FC (IC020772.1/DMSO): −0.5416
BICD1 (Q96G01-1)
  log2FC (IC020772.1/DMSO): −0.5479
BTBD10 (Q9BSF8-2)
  log2FC (IC020772.1/DMSO): −0.6371
C8orf59 (Q8N0T1-1)
  log2FC (IC020772.1/DMSO): −1.442
C12orf45 (Q8N5I9)
  log2FC (IC020772.1/DMSO): −0.5479
CCDC32 (Q9BV29-2)
  log2FC (IC020772.1/DMSO): −1.221
CCDC61 (Q9Y6R9-1)
  log2FC (IC020772.1/DMSO): −0.567
CCNB1 (P14635-1)
  log2FC (IC020772.1/DMSO): −0.5416
CCND3 (P30281-1)
  log2FC (IC020772.1/DMSO): −0.5479
CDC6 (Q99741)
  log2FC (IC020772.1/DMSO): −1.201
CDC7 (O00311-1)
  log2FC (IC020772.1/DMSO): −0.5585
CDCA7 (Q9BWT1-1)
  log2FC (IC020772.1/DMSO): −1.311
CEP70 (Q8NHQ1-1)
  log2FC (IC020772.1/DMSO): −0.4941
CHEK1 (O14757-1)
  log2FC (IC020772.1/DMSO): −0.5522
CLIP1 (P30622-2)
  log2FC (IC020772.1/DMSO): −0.4982
CLK2 (P49760-1)
  log2FC (IC020772.1/DMSO): −0.5395
CNTLN (Q9NXG0-2)
  log2FC (IC020772.1/DMSO): −0.5585
CSPP1 (Q1MSJ5-3)
  log2FC (IC020772.1/DMSO): −0.4961
CTNNAL1 (Q9UBT7-1)
  log2FC (IC020772.1/DMSO): −0.5564
Cllorf98 (E9PRG8)
  log2FC (IC020772.1/DMSO): −0.6304
DDX28 (Q9NUL7)
  log2FC (IC020772.1/DMSO): −0.5437
DHFR (P00374-1)
  log2FC (IC020772.1/DMSO): −0.4961
DNAJB12 (Q9NXW2-1)
  log2FC (IC020772.1/DMSO): −0.5458
DNAJB14 (Q8TBM8-1)
  log2FC (IC020772.1/DMSO): −0.5374
DPH3 (Q96FX2-1)
  log2FC (IC020772.1/DMSO): −0.5564
DSG2 (Q14126)
  log2FC (IC020772.1/DMSO): −0.5692
E2F4 (Q16254)
  log2FC (IC020772.1/DMSO): −0.486
ERICH5 (Q6P6B1-1)
  log2FC (IC020772.1/DMSO): −0.6371
EVI2B (P34910-2)
  log2FC (IC020772.1/DMSO): −0.6282
FAM177A1 (Q8N128-2)
  log2FC (IC020772.1/DMSO): −0.486
FNDC3B (Q53EP0-1)
  log2FC (IC020772.1/DMSO): −0.6371
FYTTD1 (Q96QD9-1)
  log2FC (IC020772.1/DMSO): −1.279
GAB1 (Q13480-2)
  log2FC (IC020772.1/DMSO): −0.5564
GOSR1 (O95249-1)
  log2FC (IC020772.1/DMSO): −0.4961
GPT2 (Q8TD30-1)
  log2FC (IC020772.1/DMSO): −0.5564
GTSE1 (Q9NYZ3)
  log2FC (IC020772.1/DMSO): −0.4941
HAUS1 (Q96CS2-1)
  log2FC (IC020772.1/DMSO): −0.5043
HLTF (Q14527-1)
  log2FC (IC020772.1/DMSO): −0.5543
IL27RA (Q6UWB1)
  log2FC (IC020772.1/DMSO): −0.5458
JADE2 (Q9NQC1-1)
  log2FC (IC020772.1/DMSO): −0.5395
JMJD6 (Q6NYC1-3)
  log2FC (IC020772.1/DMSO): −0.5522
JUP (P14923)
  log2FC (IC020772.1/DMSO): −0.484
KBM7 cells, 12 hours, ~10xEC50, 7,903 proteins quantified
  number of proteins significantly downregulated (log2FC < -0.3), destabilized proteins: 869
KBM7 cells, 12 hours, essentiality from Hart et al. 2017
  number of downregulated proteins known to be implicated in KBM7 proliferation (essential for KBM7 viability): 147
KBTBD7 (Q8WVZ9)
  log2FC (IC020772.1/DMSO): −0.5353
LIMD2 (Q9BT23)
  log2FC (IC020772.1/DMSO): −0.6282
MTR (Q99707-1)
  log2FC (IC020772.1/DMSO): −0.5395
NARF (Q9UHQ1-2)
  log2FC (IC020772.1/DMSO): −0.488
NCR3LG1 (Q68D85)
  log2FC (IC020772.1/DMSO): −0.488
NDC80 (O14777)
  log2FC (IC020772.1/DMSO): −0.5585
NKAPD1 (Q6ZUT1-2)
  log2FC (IC020772.1/DMSO): −0.488
NKIRAS1 (Q9NYS0)
  log2FC (IC020772.1/DMSO): −0.5374
NLK (Q9UBE8)
  log2FC (IC020772.1/DMSO): −0.4982
NPAT (Q14207)
  log2FC (IC020772.1/DMSO): −0.6439
NUF2 (Q9BZD4)
  log2FC (IC020772.1/DMSO): −0.6282
NXF3 (Q9H4D5-1)
  log2FC (IC020772.1/DMSO): −0.5628
PCLAF (Q15004-1)
  log2FC (IC020772.1/DMSO): −1.248
PDCD2 (Q16342-1)
  log2FC (IC020772.1/DMSO): −0.5585
PEX19 (P40855-1)
  log2FC (IC020772.1/DMSO): −0.488
PHF8 (Q9UPP1-4)
  log2FC (IC020772.1/DMSO): −0.4961
PIAS4 (Q8N2W9)
  log2FC (IC020772.1/DMSO): −0.4901
PIBF1 (Q8WXW3-1)
  log2FC (IC020772.1/DMSO): −0.5002
PIP5K1A (Q99755-3)
  log2FC (IC020772.1/DMSO): −0.5479
PRR14L (Q5THK1-1)
  log2FC (IC020772.1/DMSO): −0.5458
PUM2 (Q8TB72-1)
  log2FC (IC020772.1/DMSO): −0.5585
RELT (Q969Z4)
  log2FC (IC020772.1/DMSO): −0.4901
RIOK2 (Q9BVS4-1)
  log2FC (IC020772.1/DMSO): −0.6394
RLIM (Q9NVW2-1)
  log2FC (IC020772.1/DMSO): −0.5458
RNF149 (Q8NC42)
  log2FC (IC020772.1/DMSO): −0.55
RNF219 (Q5W0B1)
  log2FC (IC020772.1/DMSO): −0.6506
RTEL1 (Q9NZ71-2)
  log2FC (IC020772.1/DMSO): −0.5395
SCAND1 (P57086)
  log2FC (IC020772.1/DMSO): −1.377
SCARF1 (Q14162-1)
  log2FC (IC020772.1/DMSO): −1.297
SDHAF3 (Q9NRP4)
  log2FC (IC020772.1/DMSO): −0.6349
SIK2 (Q9H0K1)
  log2FC (IC020772.1/DMSO): −0.4961
SLC19A1 (P41440-1)
  log2FC (IC020772.1/DMSO): −0.6326
SLCO4A1 (Q96BD0-1)
  log2FC (IC020772.1/DMSO): −0.5043
SNAP29 (O95721)
  log2FC (IC020772.1/DMSO): −0.6282
SPHK2 (Q9NRA0-5)
  log2FC (IC020772.1/DMSO): −0.6439
STXBP4 (Q6ZWJ1-1)
  log2FC (IC020772.1/DMSO): −0.5043
TFAP4 (Q01664)
  log2FC (IC020772.1/DMSO): −0.5585
TMED1 (Q13445)
  log2FC (IC020772.1/DMSO): −0.5395
TMEM126B (Q8IUX1-1)
  log2FC (IC020772.1/DMSO): −0.4961
TPK1 (Q9H3S4-1)
  log2FC (IC020772.1/DMSO): −0.5543
TPT1 (P13693-1)
  log2FC (IC020772.1/DMSO): −0.4982
TRMT44 (Q8IYL2-1)
  log2FC (IC020772.1/DMSO): −0.5416
TRUB2 (O95900-1)
  log2FC (IC020772.1/DMSO): −0.6371
TTC21B (Q7Z4L5-1)
  log2FC (IC020772.1/DMSO): −0.4901
UBE2A (P49459-1)
  log2FC (IC020772.1/DMSO): −0.4921
UBE2J2 (Q8N2K1-3)
  log2FC (IC020772.1/DMSO): −0.55
UBL5 (Q9BZL1)
  log2FC (IC020772.1/DMSO): −0.5522
UBXN2B (Q14CS0)
  log2FC (IC020772.1/DMSO): −0.5374
USP38 (Q8NB14-1)
  log2FC (IC020772.1/DMSO): −0.4941
ZFAND3 (Q9H8U3)
  log2FC (IC020772.1/DMSO): −0.5543
ZNF182 (P17025-1)
  log2FC (IC020772.1/DMSO): −0.6529
